The numbers were not newly measured in patent US20040062754A1, “Photopheresis treatment of chronic HCV infections” (priority 1996, published 2004), which cites them from elsewhere.

In data set [1] the test system is progressive systemic sclerosis. Particulars: 56 patients enrolled.

As for `CC(C)(S)[C@@H](N)C(=O)O` [D-penicillamine], in data set [1], the response rate is 32%.
In the case of `Nc1nc2c(ncn2COCCO)c(=O)[nH]1` [acyclovir], the “benefit in chronic hepatitis C” value in the data set on hepatitis C virus (in vivo) is recorded as “little benefit”.
Turning to interferon alpha-2b, recombinant, the “sustained response off treatment” value in the data set on hepatitis C virus (six month course, 3 million units three times a week) was 18%.
Regarding interferon-alpha, in the data set on hepatitis C virus (in vivo), the “relapse rate after interferon therapy” value is on record as 80-85%. In addition, in the data set on hepatitis C virus (ten patients, subcutaneous injections for up to a year), the “patients with normal LFTs and nondetectable HCV RNA by RT-PCR seven years later” value is “Six”.
